# Values quoted from earlier work, collected in patent publication EP0266968A2, “Gelled ointment of vasodilating agent” (Cohen, Gérard G., priority 1986, dated 1988).
# Tested on: penile arteries
smiles,measurement,setting,value
COc1ccc(Cc2nccc3cc(OC)c(OC)cc23)cc1OC [papaverine],erections in the organic group,"29 organic impotent males, intracavernous injection","delayed, weaker and shorter erections"
same,duration of penile erections,40 to 160 mg injected intracavernously,approximately 2 hours
same,patients whose erections improved significantly,"63 patients with angiogenic impotence, repeated intracavernous injections completed by infusion of heparinized saline, mean follow up of one year",66%
same,haemodynamic and radiologic studies,done concomitantly with intracavernous injection,strong vasodilation in the penile arteries (even when pathologic) and diminished outflow from the cavernous bodies
